Assays:
NIH 3T3 cells [1] = assay: Cell migration through 8.0-μm porous Boyden chambers, gradient or uniform chemokine; type: cell-based, mouse; conditions: for chemoattractant activity (directed cell migration toward a gradient) / random cell migration: NIH 3T3, 8.0-μm pores; for chemoattractant activity (directed cell migration toward a gradient): 3 h; for random cell migration: uniform concentration
Method: (§1) Pseudopodia extension was monitored using a pseudopodia assay kit (ECM 650; Chemicon International) or Costar chambers. Serum-starved cells (75,000) were placed into the upper compartment of a chamber ([…]) equipped with a 3.0-μm porous polycarbonate membrane coated on both sides with an optimal amount of ECM protein (5 μg/ml fibronectin or collagen type I). Cells were allowed to attach and spread on the upper surface of the membrane for 2 h, and then stimulated with LPA (Sigma-Aldrich), insulin, or buffer only, which was placed in the lower chamber to establish a gradient or placed in the upper and lower chamber to form a uniform concentration. Cells were allowed to extend pseudopodia through the pores toward the direction of the gradient for various times. To initiate pseudopodia retraction, the chemoattractant was removed or an equivalent amount of chemoattractant placed in the upper chamber to create a uniform concentration. The cell body on the upper surface was manually removed with a cotton swab and the total pseudopodia protein only on the undersurface was determined using BCA and a microprotein assay system (Pierce Chemical Co.). Additionally, pseudopodia can be stained with 1% crystal violet in 2% ethanol and then the dye eluted with 10% acetic acid, which can be measured in an ELISA plate reader (OD 600) for comparison to a standard curve as previously described (Klemke et al., 1998).
(§2) NIH 3T3 cells were examined for cell migration for 3 h in 8.0-μm porous Boyden chambers containing different concentrations of LPA or insulin placed in 1) the bottom, 2) top, or 3) top and bottom compartments. The number of migratory cells per microscopic field (200×) on the underside of the membrane was counted as described in Example 1 above. Additionally, COS-7 cells were examined for cell migration as described above with respect to NIH 3T3 cells. […] In FIG. 1, each point on the graphs represents the mean±SEM of three triplicate migration chambers of three independent experiments.

COS-7 cells = assay: as above; type: cell-based; conditions: for chemoattractant activity (directed cell migration toward a gradient) / random cell migration: COS-7, 8.0-μm pores; for random cell migration: uniform concentration
Method: as §1, §2

NIH 3T3 cells [2] = assay: Pseudopodia extension through 3.0-μm porous membranes toward LPA; type: cell-based, mouse; conditions: 3.0-μm pores
Method: as §1
NIH 3T3 cells were allowed to attach to fibronectin coated 3.0-μm porous membranes for 2 h. Pseudopodia extension was then examined for various times in the absence (NT) or presence of LPA (100 ng/ml) in the bottom, top, or top and bottom compartments. Pseudopodia protein on the underside of the membrane was determined as described in Example 1. Results are set forth in FIG. 2, where each point in the graphs represents the mean±SEM of three triplicate membranes of three independent experiments. COS-7 cells were examined for pseudopodia protrusion in the same manner as for NIH 3T3 cells as described above.
Confocal images of NIH 3T3 pseudopodia protrusion on the undersurface of a 3.0-μm porous membrane in response to LPA (100 ng/ml) as a gradient (LPA bottom) or uniform concentration (LPA top and bottom) were generated. Cells were labeled with cell tracker green and then fixed at the indicated times to visualize protruding pseudopodia on the undersurface of the membrane.

NIH 3T3 cells [3] = assay: Pseudopodia retraction after removal of the LPA gradient; type: cell-based, mouse
Method: as §1
Pseudopodia retraction was studied via the following methods. Pseudopodia extension of NIH 3T3 cells through 3.0-μm pores toward an LPA gradient was examined at 60, 120, 180 and 240 minutes, or the LPA gradient was removed after 60 min and pseudopodia were allowed to retract for the indicated times (LPA Removed). Total pseudopodia protein on the underside of the membrane was determined as described in Example 1.
Pseudopodia were allowed to extend for 60 min (time 0) toward an LPA gradient as described above. The gradient was then removed and pseudopodia were fixed at the indicated times (0, 30, 60, 120 minutes). […]

[4] = listed as lysophosphatidic acid
[5] = LPA gradient removed after 60 min extension

Row | Substance | chemoattractant activity (directed cell migration toward a gradient) (NIH 3T3 cells [1]) | random cell migration (NIH 3T3 cells [1]) | chemoattractant activity (directed cell migration toward a gradient) (COS-7 cells) | random cell migration (COS-7 cells) | chemoattractant activity (directed cell migration toward a gradient) (NIH 3T3 cells [1]; listed as LSA) | chemoattractant activity (directed cell migration toward a gradient) (NIH 3T3 cells [1]; [4]) | concentration at which chemotaxis reached a maximum (NIH 3T3 cells [1]; NIH 3T3, dose dependent) | chemoattractant activity (directed cell migration toward a gradient) (COS-7 cells; listed as LSA) | chemoattractant activity (directed cell migration toward a gradient) (COS-7 cells; [4]) | concentration at which chemotaxis reached a maximum (COS-7 cells; COS-7, dose dependent) | pseudopodia extension, gradient versus uniform concentration (NIH 3T3 cells [2]; LPA gradient but not uniform concentration) | time at which extension of pseudopodia was first detected after exposure to the gradient (NIH 3T3 cells [2]; LPA gradient) | time over which pseudopodia extension proceeded linearly (NIH 3T3 cells [2]; LPA gradient) | cells polarized by extending pseudopodia (NIH 3T3 cells [2]; LPA gradient, confocal microscope) | cells displaying pseudopodia retraction (NIH 3T3 cells [3]; [5]) | onset of pseudopodia retraction after removing the gradient (NIH 3T3 cells [3]; [5]) | effect of restoring the gradient on retracting pseudopodia (NIH 3T3 cells [3]; LPA gradient restored after removal)
1 | insulin | poor chemoattractant | promoted random migration | poor chemoattractant | promoted random migration |  |  |  |  |  |  |  |  |  |  |  |  | 
2 | lysophosphatidic acid [LPA] | true chemoattractant | does not facilitate random cell migration | true chemoattractant | does not facilitate random cell migration | potent chemoattractant | potent chemoattractant | 100 to 200 ng/mL | potent chemoattractant | potent chemoattractant | 100 to 200 ng/mL | extend pseudopodia through small pores specifically in the direction of the gradient | 10 to 15 min | 60 to 90 min | > 90% | > 80% | ≤ 5 min | inhibited the retraction process and induced pseudopodia growth

Source: patent US20030224398A1, “Purification of the leading front of migratory cells” (priority 2002, published 2003)
